Values of other authors as cited in US20100113580A1, “COMBINATION THERAPIES FOR THE TREATMENT OF OBESITY” (priority 2008, published 2010).

Conditions: literature studies of single weight loss drugs
In the case of `CC(C)CC(N(C)C)C1(c2ccc(Cl)cc2)CCC1` (stereo not drawn) [sibutramine], the “weight loss of body weight for drug compared with placebo” value (from here on “weight loss … compared with placebo”) is given as “about 5%”.
For `CCN[C@@H](C)Cc1cccc(C(F)(F)F)c1` [dexfenfluramine], the “weight loss … compared with placebo” value is listed as “about 5%”.
For `CCCCCCCCCCC[C@@H](C[C@@H]1OC(=O)[C@H]1CCCCCC)OC(=O)[C@H](CC(C)C)NC=O` [orlistat], the “weight loss … compared with placebo” value is listed as “about 5%”.
